Experimental data from article PMC5467912, “Asymmetric regulation of quorum-sensing receptors drives autoinducer-specific gene expression programs in Vibrio cholerae” (PLoS Genetics, 2017).
“And” between values parts separate entries of the source, which are not always exact repeats. Equal entries are not always repeated. Where two headings read alike, the source gives them in different places.

What was measured:
[1] = biological target: T1, CqsS (Vibrio cholerae serotype O1, UniProt Q9KM66); experiment: cell-based; settings: for Light production: strain WN1102; for RLU: Strain WN1102; for EC50: light production, reporter strain WN1102, 4 h at 30 °C
T1 construct: endogenous in cells; host or cells: V. cholerae WN1102 (ΔcqsA ΔluxQ/pBB1), derived from C6706str2

[2] = tested on: T2, WT CqsS; assay type: biochemical; settings: for % Total Phosphorylation: CqsS WT; for inhibition of WT CqsS autophosphorylation: saturating concentration (Fig 7B)
T2 construct: made in house; host or cells: E. coli C43 (DE3), pET21b; used as inverted membrane vesicles

[3] = tested on: T3, CqsS D618N; experiment: CqsS D618N autophosphorylation in inverted membrane vesicles, 32P (Fig 7A); assay type: biochemical, Vibrio cholerae
T3 construct: made in house; host or cells: E. coli C43 (DE3), pET21b; used as inverted membrane vesicles

[4] = tested on: T2, WT CqsS; assay type: cell-based; settings: Treatment 1uM
[5] = tested on: CqsS F162A; experiment: CqsS-dependent repression of qrr4-gfp, CqsS F162A (Fig 7C); assay type: cell-based, Vibrio cholerae; settings: Treatment 1uM; CqsS mutant F162A
[6] = tested on: CqsS F166L; experiment: CqsS-dependent repression of qrr4-gfp, CqsS F166L (Fig 7C); assay type: cell-based, Vibrio cholerae; settings: Treatment 1uM; CqsS mutant F166L
[7] = tested on: CqsS C170Y; experiment: CqsS-dependent repression of qrr4-gfp, CqsS C170Y (Fig 7C); assay type: cell-based, Vibrio cholerae; settings: Treatment 1uM; CqsS mutant C170Y

`CCn1nnnc1NCc1ccc(N2CCCC2)cc1` [#1] was tested, and the Light production ([1]; Agonist 0.0119209 nM) was 14433 RLU and 16087 RLU and 17053 RLU, the Light production ([1]; Agonist 0.0476837 nM) was 23351 RLU and 21676 RLU and 24048 RLU and the Light production ([1]; Agonist 0.190735 nM) was 38851 RLU and 41951 RLU and 36905 RLU. The Light production ([1]; Agonist 0.762939 nM) was 87702 RLU and 80982 RLU and 79024 RLU, the Light production ([1]; Agonist 3.05176 nM) was 716543 RLU and 579623 RLU and 556962 RLU and the Light production ([1]; Agonist 12.207 nM) was 18832900 RLU and 18957270 RLU and 17907730 RLU. The Light production ([1]; Agonist 48.8281 nM) was 80742000 RLU and 84094230 RLU and 86837650 RLU, the Light production ([1]; Agonist 195.312 nM) was 115208300 RLU and 122904000 RLU and 129103600 RLU and the Light production ([1]; Agonist 781.25 nM) was 116783100 RLU and 133656800 RLU and 131724500 RLU. The Light production ([1]; Agonist 3125 nM) was 109482900 RLU and 129285000 RLU and 130316000 RLU, the Light production ([1]; Agonist 12500 nM) was 93560740 RLU and 110559800 RLU and 116375500 RLU and the Light production ([1]; Agonist 50000 nM) was 59185800 RLU and 66981220 RLU and 65547470 RLU. The “fold more potent than CAI-1” value ([1]; EC50 comparison) was ~ 10 fold, the RLU ([1]; agonist 0.0119209 nM) was 1.70E+04 RLU and 1.69E+04 RLU and 1.12E+04 RLU and the RLU ([1]; agonist 0.0476837 nM) was 2.55E+04 RLU and 2.29E+04 RLU and 2.60E+04 RLU. The RLU ([1]; agonist 0.190735 nM) was 4.47E+04 RLU and 4.12E+04 RLU and 4.19E+04 RLU, the RLU ([1]; agonist 0.762939 nM) was 6.42E+04 RLU and 6.05E+04 RLU and 7.48E+04 RLU and the RLU ([1]; agonist 3.05176 nM) was 2.06E+05 RLU and 2.32E+05 RLU and 3.12E+05 RLU. The RLU ([1]; agonist 12.207 nM) was 1.01E+07 RLU and 9.84E+06 RLU and 1.23E+07 RLU, the RLU ([1]; agonist 48.8281 nM) was 9.23E+07 RLU and 8.51E+07 RLU and 1.09E+08 RLU and the RLU ([1]; agonist 195.312 nM) was 1.65E+08 RLU and 1.58E+08 RLU and 1.92E+08 RLU. The RLU ([1]; agonist 781.25 nM) was 1.94E+08 RLU and 2.03E+08 RLU and 2.28E+08 RLU, the RLU ([1]; agonist 3125 nM) was 2.05E+08 RLU and 2.11E+08 RLU and 2.23E+08 RLU and the RLU ([1]; agonist 12500 nM) was 1.88E+08 RLU and 1.94E+08 RLU and 1.93E+08 RLU. The RLU ([1]; agonist 50000 nM) was 1.33E+08 RLU and 1.29E+08 RLU, the EC50 [1] was 4 nM and the “% Total Phosphorylation” value ([2]; Agonist 0.1 uM) was 100.558% and 115.09% and 103.96% and 101.973%. For the same molecule, the “% Total Phosphorylation” value ([2]; Agonist 0.5 uM) was 68.5791% and 92.92% and 82.55% and 69.9852%, the “% Total Phosphorylation” value ([2]; Agonist 1 uM) was 45.0881% and 63.83% and 58.45% and 44.3406% and the “% Total Phosphorylation” value ([2]; Agonist 2.5 uM) was 26.3754% and 21.56% and 17.64% and 21.3677%. For the same molecule, the “% Total Phosphorylation” value ([2]; Agonist 5 uM) was 11.5601% and 8.94% and 7.65% and 9.2554%, the “% Total Phosphorylation” value ([2]; Agonist 10 uM) was 6.306% and 5.77% and 3.8% and 4.014% and the “% Total Phosphorylation” value ([2]; Agonist 20 uM) was 3.59% and 2.41% and 2.332%. The “% Total Phosphorylation” value ([2]; Agonist 30 uM) was 2.867% and 2.2% and 1.97% and 1.073%, the “% Total Phosphorylation” value ([2]; Agonist 100 uM) was 1.456% and 1.61% and 2.02% and 0.9371% and the “% Total Phosphorylation” value ([2]; Agonist 200 uM) was 0.8391% and 0.1631%. The “inhibition of WT CqsS autophosphorylation” value [2] was 99%, the “% Total Phosphorylation” value ([3]; agonist 0.32 uM) was 64.1931% and 55.8048% and 58.0668% and 77.924% and 56.4082% and the “% Total Phosphorylation” value ([3]; agonist 10 uM) was 1.9% and 2.181% and 3.3092% and 3.5805%. For the same molecule, the Qrr4-GFP/OD600 [4] was 1321723 and 1319147 and 1356464, the Qrr4-GFP/OD600 [5] was 15523160 and 14988240 and 15125460 and the Qrr4-GFP/OD600 [6] was 1372627 and 1402431 and 1341231. The Qrr4-GFP/OD600 [7] was 18211780 and 19558860 and 23085030.
For `O=C(Cc1ccc(-c2ccccc2)cc1)NC1CCCC1` [#10], the Light production ([1]; Agonist 0.0119209 nM) was 9369.4 RLU and 6986.9 RLU and 10942 RLU, the Light production ([1]; Agonist 0.0476837 nM) was 9423.1 RLU and 8000 RLU and 9340.1 RLU and the Light production ([1]; Agonist 0.190735 nM) was 12692 RLU and 13456 RLU and 11192 RLU. The Light production ([1]; Agonist 0.762939 nM) was 11313 RLU and 14104 RLU and 15238 RLU, the Light production ([1]; Agonist 3.05176 nM) was 22600 RLU and 24142 RLU and 30238 RLU and the Light production ([1]; Agonist 12.207 nM) was 47534 RLU and 48144 RLU and 43294 RLU. The Light production ([1]; Agonist 48.8281 nM) was 434632 RLU and 280649 RLU and 290930 RLU, the Light production ([1]; Agonist 195.312 nM) was 18756970 RLU and 17581320 RLU and 17098310 RLU and the Light production ([1]; Agonist 781.25 nM) was 54801790 RLU and 56977330 RLU and 58542960 RLU. The Light production ([1]; Agonist 3125 nM) was 59104040 RLU and 65075830 RLU and 69081300 RLU, the Light production ([1]; Agonist 12500 nM) was 60176380 RLU and 64830980 RLU and 65866960 RLU and the Light production ([1]; Agonist 50000 nM) was 60204070 RLU and 58034020 RLU and 58318400 RLU. For the same molecule, the EC50 [1] was 62 nM, the “% Total Phosphorylation” value ([2]; Agonist 0.1 uM) was 86.7558% and the “% Total Phosphorylation” value ([2]; Agonist 0.5 uM) was 84.62% and 81.5912%. For the same molecule, the “% Total Phosphorylation” value ([2]; Agonist 1 uM) was 70.72%, the “% Total Phosphorylation” value ([2]; Agonist 5 uM) was 11.17% and 6.892% and the “% Total Phosphorylation” value ([2]; Agonist 10 uM) was 7.64% and 4.71%. The “% Total Phosphorylation” value ([2]; Agonist 20 uM) was 4.64% and 6.727%, the “% Total Phosphorylation” value ([2]; Agonist 30 uM) was 7.41% and 4.674% and the “% Total Phosphorylation” value ([2]; Agonist 100 uM) was 7.94% and 6.455%. For the same molecule, the “% Total Phosphorylation” value ([2]; Agonist 200 uM) was 9.2% and 11.8727%, the “inhibition of WT CqsS autophosphorylation” value [2] was 90% and the “% Total Phosphorylation” value ([3]; agonist 0.32 uM) was 78.2169% and 129.787% and 72.1832% and 83.4166% and 68.7823%. The “% Total Phosphorylation” value ([3]; agonist 0.64 uM) was 67.6455% and 78.826% and 54.4942% and 82.803% and 54.4178% and 76.2235%, the “% Total Phosphorylation” value ([3]; agonist 5.12 uM) was 12.1256% and 15.8552% and 14.0183% and 14.8493% and 9.564% and 18.5457% and the “% Total Phosphorylation” value ([3]; agonist 6.4 uM) was 8.254% and 10.2835% and 8.308% and 5.772% and 5.105% and 9.008%. The “% Total Phosphorylation” value ([3]; agonist 8 uM) was 7.787% and 6.051% and 9.483% and 6.182% and 5.718% and 6.335%, the Qrr4-GFP/OD600 [4] was 1697194 and 1657949 and 1642162 and the Qrr4-GFP/OD600 [5] was 18605320 and 18513840 and 18292630. The Qrr4-GFP/OD600 [6] was 1551288 and 1596042 and 1572105 and the Qrr4-GFP/OD600 [7] was 18211540 and 17807950 and 19517480.
